Laboratory results reported in patent US20220002279A1, “NOVEL IMIDAZOLE DERIVATIVE” (priority 2018, published 2022).
pIC50: −log10 of the molar value. In brackets after ≈: the same amount, converted by molar mass. Where two headings read alike, the source gives them in different places.

How the values were obtained:
[1] = tested on: Pseudomonas aeruginosa strain ATCC27853; assay: Antimicrobial activity, MIC by broth microdilution; type: cell-based; details: ATCC27853, 18 h, cation-adjusted Mueller-Hinton broth, about 5×10^5 CFU/mL, 35° C., about 18 hours, read-out: MIC Pseudomonas aeruginosa ATCC27853
Source text: (§1) Test Example 4 Evaluation of the Antimicrobial Activity
(§2) For minimum inhibitory concentration (MIC) measurement, the following broth microdilution method was applied as adapted from the standard procedure recommended by the CLSI (Clinical and Laboratory Standards Institute).
(§3) The bacteria used were Pseudomonas aeruginosa strain ATCC27853, Escherichia coli strain ATCC25922, and Klebsiella pneumoniae strain ATCC13883. After culture overnight on a heart infusion agar medium, the cells of a test bacterium were scraped off, and a bacterial solution suspended to have a turbidity of level 0.5 on the McFarland scale was diluted and used as an inoculum solution. The inoculum solution was inoculated in a cation-adjusted Mueller-Hinton broth medium containing a test compound so that the final inoculation concentration was about 5×10^5 CFU/mL, and cultured at 35° C. for about 18 hours. A minimum drug concentration at which no cell growth was visible to the naked eye was designated as MIC. […] In the table, ND represents the case where suppression of the cell growth in a drug concentration-dependent manner was not observed (Not Determined), and NT represents that no test was conducted (Not Tested).

[2] = tested on: Klebsiella pneumoniae strain ATCC13883; assay: Antimicrobial activity, MIC by broth microdilution; type: cell-based; details: ATCC13883, cation-adjusted Mueller-Hinton broth, about 5×10^5 CFU/mL, 35° C., about 18 hours, read-out: MIC Klebsiella pneumoniae ATCC13883
Source text: as §1, §2, §3

[3] = tested on: Escherichia coli strain ATCC25922; assay: Antimicrobial activity, MIC by broth microdilution; type: cell-based; details: ATCC25922, 18 h, cation-adjusted Mueller-Hinton broth, about 5×10^5 CFU/mL, 35° C., about 18 hours, read-out: MIC Escherichia coli ATCC25922
Source text: as §1, §2, §3

[4] = biological target: T1, Escherichia coli LpxC enzyme (Escherichia coli, UniProt P0A725); assay: Inhibitory activity on Escherichia coli LpxC enzyme (fluorescamine method); type: biochemical
T1 construct: made in house; host or cells: Escherichia coli
T1 sequence (P0A725 1-305): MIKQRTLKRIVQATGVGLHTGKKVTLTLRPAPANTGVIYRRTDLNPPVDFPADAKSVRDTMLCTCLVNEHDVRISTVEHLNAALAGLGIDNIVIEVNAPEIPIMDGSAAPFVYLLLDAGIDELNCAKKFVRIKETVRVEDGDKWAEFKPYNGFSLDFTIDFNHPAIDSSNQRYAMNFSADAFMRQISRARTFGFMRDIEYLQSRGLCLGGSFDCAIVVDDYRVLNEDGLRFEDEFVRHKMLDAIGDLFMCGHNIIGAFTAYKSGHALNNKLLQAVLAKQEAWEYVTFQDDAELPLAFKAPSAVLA
Procedure: To assay the activity of Escherichia coli LpxC enzyme, LpxC was reacted with its substrate, UDP-3-O-(R-3-hydroxymyristoyl)-N-acetylglucosamine, and the amount of the reaction product was quantified by the amino groups present in the product
The reaction was terminated by the addition of 1.0 mg/mL-fluorescamine dissolved in a solvent obtained by mixing an equal amount of acetonitrile and dimethylformamide with the reaction mixture, and then, a 0.2 mol/L-sodium phosphate buffer solution (pH 8.0) was added thereto, and the amount of the reaction product was detected at an excitation wavelength/fluorescence wavelength=390 nm/495 nm. An inhibition curve was obtained by performing the aforementioned reaction in the presence of various concentrations of test compounds.

[5] = fluorescamine detection, 3.1 nmol/L enzyme, 20 μmol/L substrate, pH 6.5, 120 min, read-out: IC50 (inhibitory activity on Escherichia coli LpxC enzyme, Fluoresamine method)

Row | MIC [1] | MIC [2] | MIC [3] | Compound | pIC50 [4, 5] | pIC50 [4]
1 |  |  |  | C[C@H](O)c1nccn1Cc1cc(-c2ccc(C#C[C@@H]3[C@H]4CN(CC(=O)O)C[C@@H]34)cc2)on1 [Compound 110, [(1R,5S,6s)-6-({4-[3-((2-[(1S)-1-hydroxyethyl]-1H-imidazol-1-yl}methyl)-1,2-oxazol-5-yl]phenyl}ethynyl)-3-azabicyclo[3.1.0]hexan-3-yl]acetic acid] | 6.66 | 
2 | 2 µg/mL (≈ 4.33 µM) | 2 µg/mL (≈ 4.33 µM) | 1 µg/mL (≈ 2.17 µM) | CC(O)CN1C[C@@H]2[C@@H](C#Cc3ccc(-c4cc([C@@H](CN)n5ccnc5[C@H](C)O)no4)cc3)[C@@H]2C1 (stereo partly drawn) [Compound 120, 1-{(1R,5S,6s)-6-[(4-{3-[(1R)-2-amino-1-{2-[(1S)-1-hydroxyethyl]-1H-imidazol-1-yl}ethyl]-1,2-oxazol-5-yl}phenyl)ethynyl]-3-azabicyclo[3.1.0]hexan-3-yl}propan-2-ol] |  | 
3 | 32 µg/mL (≈ 73.8 µM) | 2 µg/mL (≈ 4.61 µM) | 4 µg/mL (≈ 9.23 µM) | C[C@H](O)c1nccn1[C@H](CN)c1cc(-c2ccc(C#C[C@H]3C[C@H](N(C)C=O)C3)cc2)on1 [Compound 123, N-{trans-3-[(4-{3-[(1R)-2-amino-1-{2-[(1S)-1-hydroxyethyl]-1H-imidazol-1-yl}ethyl]-1,2-oxazol-5-yl}phenyl)ethynyl]cyclobutyl}-N-methylformamide] |  | 
4 | 2 µg/mL (≈ 4.21 µM) | 4 µg/mL (≈ 8.43 µM) | 2 µg/mL (≈ 4.21 µM) | C[C@H](O)c1nccn1[C@H](CN)c1cc(-c2ccc(C#C[C@@H]3[C@H]4CN(C(=O)C(N)=O)C[C@@H]34)cc2)on1 [Compound 124, 2-{(1R,5S,6s)-6-[(4-{3-[(1R)-2-amino-1-{2-[(1S)-1-hydroxyethyl]-1H-imidazol-1-yl}ethyl]-1,2-oxazol-5-yl}phenyl)ethynyl]-3-azabicyclo[3.1.0]hexan-3-yl}-2-oxoacetamide] |  | 
5 | 8 µg/mL (≈ 20.4 µM) | 2 µg/mL (≈ 5.1 µM) | 2 µg/mL (≈ 5.1 µM) | C[C@H](O)c1nccn1[C@H](CN)c1cc(-c2ccc(C#C[C@H]3C[C@@H](O)C3)cc2)on1 [Compound 125, cis-3-[(4-{3-[(1R)-2-amino-1-{2-[(1S)-1-hydroxyethyl]-1H-imidazol-1-yl}ethyl]-1,2-oxazol-5-yl}phenyl)ethynyl]cyclobutan-1-ol] |  | 
6 | 16 µg/mL (≈ 39.4 µM) | 64 µg/mL (≈ 157 µM) | 16 µg/mL (≈ 39.4 µM) | C[C@H](O)c1nccn1[C@H](CN)c1cc(-c2ccc(C#C[C@H]3CC3C(=O)O)cc2)on1 (stereo partly drawn) [Compound 126, trans-2-[(4-{3-[(1R)-2-amino-1-{2-[(1S)-1-hydroxyethyl]-1H-imidazol-1-yl}ethyl]-1,2-oxazol-5-yl}phenyl)ethynyl]cyclopropane-1-carboxylate] |  | 
7 | 8 µg/mL (≈ 18.5 µM) | 2 µg/mL (≈ 4.63 µM) | 1 µg/mL (≈ 2.32 µM) | C[C@H](O)c1nccn1[C@H](CN)c1cc(-c2ccc(C#CC3CC(NC4CC4)C3)cc2)on1 (stereo partly drawn) [Compound 129, (1S)-1-(1-{(1R)-2-amino-1-[5-(4-{[3-(cyclopropylamino)cyclobutyl]ethynyl}phenyl)-1,2-oxazol-3-yl]ethyl}-1H-imidazol-2-yl)ethan-1-ol] |  | 
8 | 16 µg/mL (≈ 37.9 µM) | 32 µg/mL (≈ 75.7 µM) | 8 µg/mL (≈ 18.9 µM) | C[C@H](O)c1nccn1[C@H](CN)c1cc(-c2ccc(C#CC3CC3(CO)CO)cc2)on1 (stereo partly drawn) [Compound 131, (1S)-1-(1-{(1R)-2-amino-1-[5-(4-{[2,2-bis(hydroxymethyl)cyclopropyl]ethynyl}phenyl)-1,2-oxazol-3-yl]ethyl}-1H-imidazol-2-yl)ethan-1-ol] |  | 
9 | 2 µg/mL (≈ 4.33 µM) | 8 µg/mL (≈ 17.3 µM) | 8 µg/mL (≈ 17.3 µM) | C[C@H](O)c1nccn1[C@H](CN)c1cc(-c2ccc(C#C[C@@H]3[C@H]4CN(CCCO)C[C@@H]34)cc2)on1 [Compound 132, 3-{(1R,5S,6s)-6-[(4-{3-[(1R)-2-amino-1-{2-[(1S)-1-hydroxyethyl]-1H-imidazol-1-yl}ethyl]-1,2-oxazol-5-yl}phenyl)ethynyl]-3-azabicyclo[3.1.0]hexan-3-yl) propan-1-ol] |  | 
10 | 8 µg/mL (≈ 17.9 µM) | 4 µg/mL (≈ 8.94 µM) | 1 µg/mL (≈ 2.23 µM) | C[C@H](O)c1nccn1[C@H](CN)c1cc(-c2ccc(C#C[C@H]3C[C@H](NC4COC4)C3)cc2)on1 [Compound 133, (1S)-1-{1-[(1R)-2-amino-1-{5-[4-({trans-3-[(oxetan-3-yl)amino]cyclobutyl}ethynyl)phenyl]-1,2-oxazol-3-yl}ethyl]-1H-imidazol-2-yl} ethan-1-ol] |  | 
11 | 32 µg/mL (≈ 76.5 µM) | 2 µg/mL (≈ 4.78 µM) | 0.5 µg/mL (≈ 1.19 µM) | C[C@H](O)c1nccn1Cc1cc(-c2ccc(C#C[C@H]3C[C@H](NC4COC4)C3)cc2)on1 [Compound 135, (S)-1-(1-((5-(4-(((1r,3S)-3-(oxetan-3-ylamino)cyclobutyl)ethynyl)phenyl)isoxazol-3-yl)methyl)-1H-imidazol-2-yl)ethanol] |  | 
12 | 2 µg/mL (≈ 4.33 µM) | 4 µg/mL (≈ 8.67 µM) | 1 µg/mL (≈ 2.17 µM) | C[C@H](O)CN1C[C@@H]2[C@@H](C#Cc3ccc(-c4cc([C@@H](CN)n5ccnc5[C@H](C)O)no4)cc3)[C@@H]2C1 [Compound 136, (S)-1-((1R,5S,6R)-6-((4-(3-((R)-2-amino-1-(2-((S)-1-hydroxyethyl)-1H-imidazol-1-yl)ethyl)isoxazol-5-yl)phenyl)ethynyl)-3-azabicyclo[3.1.0]hexan-3-yl)propan-2-ol] |  | 

Row | Compound | MIC [1] | MIC [2] | MIC [3] | pIC50 [4, 5] | pIC50 [4]
13 | COCC1CC1C#Cc1ccc(-c2cc([C@@H](CN)n3ccnc3[C@H](C)O)no2)cc1 (relative stereo) [Compound 74, (1S)-1-(1-{(1R)-2-amino-1-[5-(4-{[trans-2-(methoxymethyl)cyclopropyl]ethynyl}phenyl)-1,2-oxazol-3-yl]ethyl}-1H-imidazol-2-yl)ethan-1-ol] | 16 µg/mL (≈ 39.4 µM) | 0.25 µg/mL (≈ 0.615 µM) | 0.12 µg/mL (≈ 0.295 µM) | 7.40 | 
14 | C[C@H](O)c1nccn1[C@H](CN)c1cc(-c2ccc(C#CC3CC3CO)cc2)on1 (relative stereo) [Compound 80, (1S)-1-(1-((1R)-2-amino-1-[5-(4-{[trans-2-(hydroxymethyl)cyclopropyl]ethynyl}phenyl)-1,2-oxazol-3-yl]ethyl}-1H-imidazol-2-yl)ethan-1-ol] | 4 µg/mL (≈ 10.2 µM) | 1 µg/mL (≈ 2.55 µM) | 0.25 µg/mL (≈ 0.637 µM) | 7.09 | 
15 | COCC1CC1C#Cc1ccc(-c2cc(Cn3ccnc3[C@H](C)O)no2)cc1 (stereo in doubt) [Compound 66, (1S)-1-(1-{[5-(4-{[trans-2-(Methoxymethyl)cyclopropyl]ethynyl}phenyl)-1,2-oxazol-3-yl]methyl}-1H-imidazol-2-yl)ethan-1-ol] | 32 µg/mL (≈ 84.8 µM) | 0.12 µg/mL (≈ 0.318 µM) | 0.12 µg/mL (≈ 0.318 µM) |  | > 8.00
16 | C[C@H](O)c1nccn1Cc1cc(-c2ccc(C#CC3CC3)cc2)on1 [Compound 26, (1S)-1-[1-({5-[4-(Cyclopropylethynyl)phenyl]-1,2-oxazol-3-yl}methyl)-1H-imidazol-2-yl]ethan-1-ol] | > 8 µg/mL | 0.25 µg/mL (≈ 0.75 µM) | 0.25 µg/mL (≈ 0.75 µM) |  | > 8.00
17 | C[C@H](O)c1nccn1Cc1cc(-c2ccc(C#CC3CCOCC3)cc2)on1 [Compound 31, (1S)-1-{1-[(5-{4-[(oxan-4-yl)ethynyl]phenyl}-1,2-oxazol-3-yl)methyl]-1H-imidazol-2-yl) ethan-1-ol] | > 128 µg/mL | 2 µg/mL (≈ 5.3 µM) | 1 µg/mL (≈ 2.65 µM) | 7.48 | 
18 | C[C@H](O)c1nccn1Cc1cc(-c2ccc(C#CC(C)(C)O)cc2)on1 [Compound 32, 4-(4-[3-({2-[(1S)-1-hydroxyethyl]-1H-imidazol-1-yl}methyl)-1,2-oxazol-5-yl]phenyl}-2-methylbut-3-yn-2-ol] | > 128 µg/mL | 16 µg/mL (≈ 45.5 µM) | 8 µg/mL (≈ 22.8 µM) | 6.47 | 
19 | C[C@H](O)c1nccn1Cc1cc(-c2ccc(C#C[C@@H]3[C@H]4CN(CCC(=O)O)C[C@@H]34)cc2)on1 [Compound 114, 3-[(1R,5S,6s)-6-({4-[3-({2-[(1S)-1-hydroxyethyl]-1H-imidazol-1-yl}methyl)-1,2-oxazol-5-yl]phenyl}ethynyl)-3-azabicyclo[3.1.0]hexan-3-yl]propanoic acid] | 4 µg/mL (≈ 8.96 µM) | 4 µg/mL (≈ 8.96 µM) |  | 6.54 | 
